{
  "source": "paper PMC8658016",
  "about": "“Identification of New Compounds with Anticonvulsant and Antinociceptive Properties in a Group of 3-substituted (2,5-dioxo-pyrrolidin-1-yl)(phenyl)-Acetamides” (International Journal of Molecular Sciences, 2021)",
  "key": {"mice [1]": {"test_system": "mice", "experiment": "Timed ivPTZ seizure threshold test", "type": "in vivo, mouse", "text": "The timed ivPTZ test was employed to evaluate the acute effect of compound 14 on the seizure thresholds for (1) the first myoclonic twitch, (2) generalized clonic seizure with the loss of the righting reflex, and (3) forelimb tonus. The experimental procedure has been described in detail elsewhere.\nIn this study, we used adult male Swiss albino mice (Kołacz, Laboratory Animals Breeding, Warszawa, Poland) license no. 106/2019 (Local Ethical Committee in Lublin). In studies assessing the acute effect of compound 14 on neuromuscular strength, body temperature, and seizure threshold, compound 14 was suspended in a 1% solution of Tween 80 and administered i.p., 30 min before the tests.\nThe timed ivPTZ test was employed to evaluate the acute effect of compound 14 on the seizure thresholds for (1) the first myoclonic twitch, (2) generalized clonic seizure with loss of righting reflex, and (3) forelimb tonus. The experimental procedure was described in detail elsewhere. The changes in temperature were recorded using an electronic thermometer (ThermoWorks, Alpine, UT, USA). Mice were gently restrained and a rectal probe was inserted to a depth of ~2 cm into the rectum.\nFigure 2 Acute effect of compound 14 on the threshold for the first myoclonic twitch (panel (A)), generalized clonus (panel (B)), and forelimb tonus (panel (C)) in the ivPTZ seizure threshold test in mice. Compound 14 was administered i.p. 30 min before the seizure test. Control animals received vehicle only. Each experimental group consisted of 9–11 animals. Each bar represents the mean (mg/kg PTZ) + S.E.M. * p < 0.05; ** p < 0.01 vs. the control group (one-way ANOVA, followed by Dunnett’s post hoc test, GraphPad Prism 8.0.1)."}, "mice [2]": {"test_system": "mice", "experiment": "Formalin test (tonic pain)", "type": "in vivo", "details": "Mus musculus, ip, mice i.p.", "experimental": "The formalin test is a commonly used model of pain also useful in screening the analgesic activity of novel compounds. A subcutaneous formalin injection results in a biphasic nociceptive response; a phase one (5 min) followed by a quiescent period (10 min) and then phase two (15 min). C-fibers’ initial and direct stimulation in phase one led to peripheral inflammation accompanied by ongoing peripheral nerve activity and central sensitization during phase two. Moreover, a formalin injection induces persistent changes similar to those observed in nerve injury and subsequent neuropathic pain [27].\nThe experiments were conducted on adult male Albino Swiss mice (CD-1, 18–25 g) and male Wistar rats (Krf:(WI) WU), 180–250 g) as described previously. The minimum number of animals used needed to obtain definite and normally distributed results with the utilized test. Behavioral measures were scored by trained observers, which were blind to experimental conditions. […]\nData were presented as means ± standard error of the mean (S.E.M). […] Statistically significant differences between groups were calculated using one-way analysis of variance (ANOVA) and the post hoc Dunnett’s multiple comparison test or two-way analysis of variance (ANOVA) and the post hoc Tukey’s comparison when appropriate. […]"}, "CYP2D6": {"target": "T1, CYP2D6 (Homo sapiens, UniProt P10635)", "T1 construct": "purchased Promega (Madison, WI, USA)", "T1 sequence (P10635 whole entry)": "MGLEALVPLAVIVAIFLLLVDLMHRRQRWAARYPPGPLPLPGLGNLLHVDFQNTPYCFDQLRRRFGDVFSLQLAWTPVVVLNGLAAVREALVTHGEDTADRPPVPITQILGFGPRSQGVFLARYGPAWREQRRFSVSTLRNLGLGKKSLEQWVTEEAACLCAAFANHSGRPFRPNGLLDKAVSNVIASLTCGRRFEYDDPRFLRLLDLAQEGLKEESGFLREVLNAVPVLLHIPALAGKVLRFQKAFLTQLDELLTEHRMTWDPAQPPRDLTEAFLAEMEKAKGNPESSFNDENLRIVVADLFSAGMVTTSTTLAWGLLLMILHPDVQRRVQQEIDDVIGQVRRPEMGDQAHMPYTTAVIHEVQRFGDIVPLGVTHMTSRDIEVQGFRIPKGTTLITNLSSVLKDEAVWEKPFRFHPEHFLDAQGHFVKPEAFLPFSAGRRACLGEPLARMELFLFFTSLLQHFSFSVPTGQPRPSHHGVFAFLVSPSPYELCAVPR", "experiment": "CYP2D6 P450-Glo luminescent assay", "type": "in vitro ADME", "details": "1 and 10 µM"}, "[3]": {"details": "30 mg/kg i.p., 30 min before test"}},
  "note": "Like-named read-outs stand apart in the source and are kept apart here.",
  "data": [
    {"compound": "CN(C)C1CC(=O)N(C(C(=O)N2CCN(c3cccc(C(F)(F)F)c3)CC2)c2ccccc2)C1=O.Cl", "note": "(centres unmarked) [Compound 14, 3-(Dimethylamino)-1-(2-oxo-1-phenyl-2-(4-(3-(trifluoromethyl)phenyl)-piperazin-1-yl)ethyl)pyrrolidine-2,5-dione hydrochloride]", "values": [
      {"measurement": "effect on threshold for generalized clonus (ivPTZ)", "setting": "mice [1]; [3]", "result": "did not significantly affect"},
      {"measurement": "effect on threshold for the first myoclonic twitch (ivPTZ)", "setting": "mice [1]; [3]", "result": "did not significantly affect"},
      {"measurement": "effect on threshold for generalized clonic seizure (ivPTZ)", "setting": "mice [1]; 60 mg/kg i.p., 30 min before test, p < 0.01", "result": "slightly increased"},
      {"measurement": "effect on threshold for the first myoclonic twitch (ivPTZ)", "setting": "mice [1]; 60 mg/kg i.p., 30 min before test, p < 0.05", "result": "slightly increased"},
      {"measurement": "effect on threshold for forelimb tonic extension (ivPTZ)", "setting": "mice [1]; 30 and 60 mg/kg i.p.", "result": "No statistically significant changes"},
      {"measurement": "ED50", "setting": "mice [2]; 0–5 min after formalin, read-out: ED50 formalin test, phase I", "result": 85.1, "unit": "mg/kg"},
      {"measurement": "ED50", "setting": "mice [2]; 15–30 min after formalin, read-out: ED50 formalin test, phase II", "result": 56.1, "unit": "mg/kg"},
      {"measurement": "effect on CYP2D6 activity", "setting": "CYP2D6", "result": "significant activation"}
    ]}
  ]
}
